The test system of this assay is isolated rabbit hearts. In words: Infarct size after 30 min coronary branch occlusion and 120 min reperfusion in isolated rabbit hearts, Example 1. Further details: species or system rabbit (New Zealand white). As to conditions: for Infarct size compared with control group: ADO 10 uM or APNEA 50 nM, p<0.01. On the procedure: These solutions were then diluted in Krebs buffer to the final concentration just before the experiments started. New Zealand white rabbits of either sex, between 1.4-2.4 kg, were anesthetized with intravenous sodium pentobarbital (30 mg/kg). The neck was opened and a tracheotomy was performed. The rabbits were ventilated with 100% oxygen via a positive pressure respirator (MD industries, Mobile, Ala.). Ventilation rate was 30-35 breaths per minute, and tidal volume was approximately 15 ml. A left thoracotomy was performed in the fourth intercostal space and pericardium was opened to expose the heart. A 2-0 silk suture with an RB taper needle was passed around a branch of the left coronary artery, and the end of the silk were threaded through a small vinyl tube to form a snare. The heads were quickly excised and mounted on a Langendorff apparatus and perfused at constant pressure with Krebs buffer containing (in mM) 118.5 NaCl, 4.7 KCl, 1.2 MgSO4, 1.2 K2 PO4, 24.3 NaHCO3, 2.5 CaCl2 and 10 glucose. […] The temperature of the perfusate was maintained at 37° C. The perfusion pressure was kept at 75 mm Hg. Pacing electrodes were placed on the right atrium and all hearts were paced at 200 beats/minute with pulses of 5 volts and 4 msec duration to keep the heart rate constant. A fluid-filled latex balloon connected to a transducer via PE240 tubing was inserted into the left ventricle. Balloon volume was adjusted to set the left ventricular diastolic pressure at 10 mm Hg at the beginning of the experiment. Total coronary artery flow was measured by timed collection of buffer from the chamber into a graduated cylinder. Regional ischemia was effected by pulling the snare tight and clamping the tube with a hemostat. Global ischemia was performed by clamping the inflow tubing of the Langendorff apparatus. Reperfusion was achieved by releasing the restriction. All hearts were allowed to equilibrate for 20 minutes before the experiments were started. Heart rate (HR), coronary flow (CF) and left ventricular developed pressure (LVDP) were recorded at the point just before and at the end of each treatment with the pacing momentarily turned off. […] The hearts were removed from the Langendorff apparatus, weighed and then frozen. The hearts were cut into 2 mm transverse slices. The slices were thawed and incubated in 1% triphenyl tetrazolium chloride (TTC) in pH 7.4 buffer for 20 minutes at 37° C. TTC reacts with NADH and dehydrogenase enzymes and stains all tissue still having them to a deep red color. […] After staining, the area of infarcted tissue (TTC negative tissue) and the risk zone (area lacking fluorescence under ultraviolet light) in each slice were traced. The area of infarct and risk zone were determined by planimetry of the tracing. The volume of infarcted myocardium and myocardium at risk was then calculated by multiplying the planimetered areas by the slice thickness. The animals were divided into 10 groups. The hearts in all groups were subjected to 30 minutes of coronary branch occlusion followed by 120 minutes of reperfusion. Control group (CON, n=10) only experienced the above-mentioned 30 minutes of regional ischemia while the preconditioned group (PC, n=12) received an additional 5 minutes of global ischemia plus 10 minutes of reperfusion prior to the 30 minute occlusion. In the adenosine group (ADO, n=6) and the APNEA group (APNEA, n=5), the hearts were exposed to 10 uM adenosine and 50 nM APNEA respectively, for 5 minutes as a substitute for ischemic preconditioning. The drug was allowed to washout for 10 minutes before the 30 minute ischemia was started. In groups receiving SPT, the blocker was included in the perfusate for 15 minutes at 100 uM starting 5 minutes before the exposure of ADO (ADO-SPT group, n=6) or APNEA (APNEA-SPT group, n=5) or 5 minutes before and after 5 minutes of preconditioning ischemia (PC-SPT group, n=5). […] All results are expressed as group mean±SEM. […]

As to `Cn1c(=O)c2[nH]c(-c3ccc(S(=O)(=O)O)cc3)nc2n(C)c1=O` [SPT, 8-(p-Sulfophenyl)-theophylline], the “Infarct size (area at risk infarcted)” value was 29.8±3.4% (SPT 100 uM + ADO 10 uM (ADO-SPT)), 32.8±3.3% (SPT 100 uM + APNEA 50 nM (APNEA-SPT)) and 33.8±2.4% (SPT 100 uM + PC (PC-SPT)).

`Nc1ccc(CCNc2ncnc3c2ncn3[C@@H]2O[C@H](CO)[C@@H](O)[C@H]2O)cc1` [APNEA, N^6-(2-(4-aminophenyl)ethyl) adenosine]: the “Infarct size compared with control group” value is given as “significantly smaller than those in the control group”. Further, the “Infarct size (area at risk infarcted)” value (APNEA 50 nM, 5 minutes, control 29.4±2.9%) came out at 11.9±2.3%.

With `CCCn1c(=O)c2[nH]c(C3CCCC3)nc2n(CCC)c1=O` [DPCPX, 8-cyclopentyl-1,3-dipropylxanthine], the “Infarct size (area at risk infarcted)” value reads like this: (DPCPX 200 nM + ADO 10 uM (ADO-DPCPX)) 14.4±7.0%; (DPCPX 200 nM + APNEA 50 nM (APNEA-DPCPX)) 8.7±1.7%; (DPCPX 200 nM + PC (PC-DPCPX)) 15.6±7.8%.

Regarding `Nc1ncnc2c1ncn2[C@@H]1O[C@H](CO)[C@@H](O)[C@H]1O` [ADO, Adenosine], the “Infarct size compared with control group” value is “significantly smaller than those in the control group”. Further, the “Infarct size (area at risk infarcted)” value (ADO 10 uM, 5 minutes, control 29.4±2.9%, PC 10.8±2.8%) is 11.4±2.1%.

These data come from patent US5573772A, “Methods for protecting tissues and organs from ischemic damage” (priority 1994, dated 1996).
